Results taken from PubChem BioAssay (NCI).
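Results reflect a 48-hour exposure of cells in 96-well plates to compound at five concentrations. TGI marks complete inhibition of growth.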

How the values were obtained:
Assay in all cases: DTP human tumour cell line panel, 48 h
[1] = tested on: EKVX NSCLC
[2] = tested on: UACC-257 melanoma
[3] = tested on: SK-MEL-5 melanoma
[4] = tested on: NCI-H522 lung
[5] = tested on: IGROV1 ovarian
[6] = tested on: BT-549 breast
[7] = tested on: NCI-H226 lung
[8] = tested on: MDA-MB-231 breast
[9] = tested on: PC-3 prostate
[10] = tested on: CCRF-CEM leukemia
[11] = tested on: RXF 393 renal
[12] = tested on: SK-MEL-28 melanoma
[13] = tested on: OVCAR-8 ovarian
[14] = tested on: SK-OV-3 ovarian
[15] = tested on: K-562 leukemia
[16] = tested on: SW-620 colon
[17] = tested on: SNB-19 CNS
[18] = tested on: M14 melanoma
[19] = tested on: MALME-3M melanoma
[20] = tested on: HS 578T breast
[21] = tested on: OVCAR-4 ovarian
[22] = tested on: MDA-MB-435
[23] = tested on: HL-60(TB) leukemia
[24] = tested on: NCI-H23 lung
[25] = tested on: SF-268 CNS
[26] = tested on: HCT-15 colon
[27] = tested on: SNB-75 CNS
[28] = tested on: KM12 colon
[29] = tested on: HCC-2998 colon
[30] = tested on: OVCAR-3 ovarian
[31] = tested on: COLO 205 colon
[32] = tested on: SF-295 CNS
[33] = tested on: UO-31 renal
[34] = tested on: 786-0 renal
[35] = tested on: NCI/ADR-RES ovarian
[36] = tested on: NCI-H460 lung
[37] = tested on: MCF7 breast
[38] = tested on: TK-10 renal
[39] = tested on: HOP-62 NSCLC
[40] = tested on: A498 renal
[41] = tested on: SN12C renal
[42] = tested on: ACHN renal
[43] = tested on: UACC-62 melanoma
[44] = tested on: RPMI-8226 leukemia
[45] = tested on: MDA-N
[46] = tested on: U251 CNS
[47] = tested on: HCT-116 colon
[48] = tested on: CAKI-1 renal
[49] = tested on: MOLT-4 leukemia
[50] = tested on: T-47D breast
[51] = tested on: SK-MEL-2 melanoma
[52] = tested on: SR leukemia
[53] = tested on: OVCAR-5 ovarian
[54] = tested on: DU-145 prostate
[55] = tested on: SF-539 CNS
[56] = tested on: LOX IMVI melanoma
[57] = tested on: A549 NSCLC
[58] = tested on: HT29 colon

Compound `C=CCN(c1cc(OC)c2[nH]cc(C)c2c1[N+](=O)[O-])S(C)(=O)=O` has a TGI [1] greater than 100 µM, a TGI [2] greater than 100 µM and a TGI [3] greater than 100 µM. For the same compound, the TGI [4] was greater than 100 µM, the TGI [5] was greater than 100 µM and the TGI [6] was greater than 100 µM. For the same compound, the TGI [7] was greater than 100 µM, the TGI [8] was greater than 100 µM and the TGI [9] was greater than 100 µM. It also gave a TGI [10] greater than 100 µM, a TGI [11] greater than 100 µM and a TGI [12] greater than 100 µM. It also gave a TGI [13] greater than 100 µM, a TGI [14] greater than 100 µM and a TGI [15] greater than 100 µM. The TGI [16] was greater than 100 µM, the TGI [17] was greater than 100 µM and the TGI [18] was greater than 100 µM. For the same compound, the TGI [19] was greater than 100 µM, the TGI [20] was greater than 100 µM and the TGI [21] was greater than 100 µM. The TGI [22] was greater than 100 µM, the TGI [23] was greater than 100 µM and the TGI [24] was greater than 100 µM. It also gave a TGI [25] greater than 100 µM, a TGI [26] greater than 100 µM and a TGI [27] greater than 100 µM. It also gave a TGI [28] greater than 100 µM, a TGI [29] greater than 100 µM and a TGI [30] greater than 100 µM. For the same compound, the TGI [31] was greater than 100 µM, the TGI [32] was greater than 100 µM and the TGI [33] was greater than 100 µM. For the same compound, the TGI [34] was greater than 100 µM, the TGI [35] was greater than 100 µM and the TGI [36] was greater than 100 µM. For the same compound, the TGI [37] was greater than 100 µM, the TGI [38] was greater than 100 µM and the TGI [39] was greater than 100 µM. The TGI [40] was greater than 100 µM, the TGI [41] was greater than 100 µM and the TGI [42] was greater than 100 µM. It also gave a TGI [43] greater than 100 µM, a TGI [44] greater than 100 µM and a TGI [45] greater than 100 µM. For the same compound, the TGI [46] was greater than 100 µM, the TGI [47] was greater than 100 µM and the TGI [48] was greater than 100 µM. The TGI [49] was greater than 100 µM, the TGI [50] was greater than 100 µM and the TGI [51] was greater than 100 µM. For the same compound, the TGI [52] was greater than 100 µM, the TGI [53] was greater than 100 µM and the TGI [54] was greater than 100 µM. For the same compound, the TGI [55] was greater than 100 µM, the TGI [56] was greater than 100 µM and the TGI [57] was greater than 100 µM.

Work on `S=C(Nc1ccccn1)Nc1ccccc1Cl` yielded a TGI [1] greater than 55.9 µM, a TGI [58] greater than 100 µM and a TGI [2] greater than 100 µM. The TGI [3] was greater than 100 µM, the TGI [4] was 37.9 µM and the TGI [5] was greater than 67 µM. It also gave a TGI [6] greater than 100 µM, a TGI [7] greater than 100 µM and a TGI [8] greater than 100 µM. The TGI [9] was greater than 100 µM, the TGI [10] was greater than 100 µM and the TGI [11] was greater than 100 µM. It also gave a TGI [12] greater than 100 µM, a TGI [13] greater than 100 µM and a TGI [14] greater than 100 µM. For the same compound, the TGI [15] was greater than 100 µM, the TGI [16] was greater than 100 µM and the TGI [17] was greater than 31.6 µM. It also gave a TGI [18] greater than 100 µM, a TGI [19] greater than 79.5 µM and a TGI [20] greater than 52.2 µM. The TGI [21] was greater than 100 µM, the TGI [22] was greater than 100 µM and the TGI [23] was greater than 100 µM. It also gave a TGI [24] greater than 100 µM, a TGI [25] greater than 78 µM and a TGI [26] greater than 100 µM. For the same compound, the TGI [27] was greater than 80.4 µM, the TGI [28] was greater than 83.4 µM and the TGI [29] was greater than 100 µM. It also gave a TGI [30] greater than 100 µM, a TGI [31] greater than 100 µM and a TGI [32] greater than 100 µM. For the same compound, the TGI [33] was greater than 100 µM, the TGI [34] was greater than 100 µM and the TGI [35] was greater than 100 µM. The TGI [36] was greater than 100 µM, the TGI [37] was greater than 100 µM and the TGI [38] was greater than 100 µM. It also gave a TGI [39] greater than 100 µM, a TGI [40] greater than 100 µM and a TGI [41] greater than 100 µM. The TGI [42] was greater than 100 µM, the TGI [43] was greater than 100 µM and the TGI [44] was greater than 100 µM. It also gave a TGI [45] greater than 100 µM, a TGI [46] greater than 100 µM and a TGI [47] greater than 100 µM. It also gave a TGI [48] greater than 100 µM, a TGI [49] greater than 100 µM and a TGI [50] greater than 100 µM. The TGI [51] was greater than 100 µM, the TGI [52] was greater than 100 µM and the TGI [53] was greater than 100 µM. For the same compound, the TGI [54] was greater than 100 µM, the TGI [55] was greater than 100 µM and the TGI [56] was greater than 100 µM. It also gave a TGI [57] greater than 100 µM.
